Results taken from ChEMBL document CHEMBL5393447, “Selective foxo inhibitors for treatment of diabetes and other disorders related to impaired pancreatic function” (2022).

Assays:
[1] = target: Forkhead box protein O1 (Homo sapiens) (UniProt Q12778); conditions: HEK293, dose 1-50000 nM
Description: Inhibition of human FOXO1 expressed in HEK293 cells at 1 nM to 50 uM by Dual-Glo luciferase assay relative to control

[2] = Metabolic stability in human hepatocytes assessed as compound remaining at 0.3 uM measured upto 90 mins by LC-MS/MS analysis; type: ADME, cell-based, Hepatocyte; conditions: read-out: Stability

Forkhead box protein O1 (Homo sapiens), sequence (Q12778 whole entry): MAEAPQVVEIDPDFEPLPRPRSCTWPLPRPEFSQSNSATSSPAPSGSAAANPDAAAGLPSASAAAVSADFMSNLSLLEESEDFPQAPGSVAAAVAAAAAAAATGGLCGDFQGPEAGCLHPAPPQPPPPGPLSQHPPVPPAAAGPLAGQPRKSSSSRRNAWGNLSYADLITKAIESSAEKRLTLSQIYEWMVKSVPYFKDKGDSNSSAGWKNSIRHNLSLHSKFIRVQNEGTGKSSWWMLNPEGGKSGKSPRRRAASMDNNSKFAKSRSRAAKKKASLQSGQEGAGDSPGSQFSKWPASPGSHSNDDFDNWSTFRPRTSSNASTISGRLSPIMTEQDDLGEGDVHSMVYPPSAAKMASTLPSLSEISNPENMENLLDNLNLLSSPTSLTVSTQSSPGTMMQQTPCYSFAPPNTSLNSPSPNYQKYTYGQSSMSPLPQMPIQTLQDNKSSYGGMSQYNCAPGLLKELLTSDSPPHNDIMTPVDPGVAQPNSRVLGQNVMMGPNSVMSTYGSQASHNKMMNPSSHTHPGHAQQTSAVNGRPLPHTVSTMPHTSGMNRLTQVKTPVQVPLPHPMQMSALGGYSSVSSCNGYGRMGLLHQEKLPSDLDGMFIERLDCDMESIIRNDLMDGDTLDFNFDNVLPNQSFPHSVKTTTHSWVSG

inhibition [1]	remaining at 1.5 h, 0.3 µM [2]	SMILES
> 40%	–	CN1CCN(c2ccc(C(=O)Nc3cc(-c4nc5ccccc5[nH]4)n[nH]3)cc2)CC1
< 40%	–	Nc1cc(-c2nc3ccccc3[nH]2)n[nH]1
< 40%	–	CC(=O)Nc1cc(-c2nc3ccccc3[nH]2)n[nH]1
> 40%	–	COc1ccc(C(=O)Nc2cc(-c3nc4c(C(F)(F)F)cccc4[nH]3)[nH]n2)cc1Cl
> 40%	–	COc1ccc(C(=O)Nc2cc(-c3nc4cc(OC(F)(F)F)ccc4[nH]3)[nH]n2)cc1Cl
> 40%	–	COc1ccc(C(=O)Nc2cc(-c3nc4cc(C(F)(F)F)ccc4[nH]3)[nH]n2)cc1Cl
–	110%	O=C(Nc1cc(-c2nc3ccccc3[nH]2)n[nH]1)c1ccc(N2CCNCC2)cc1
> 40%	–	CN1CCC(c2ccc(C(=O)Nc3cc(-c4nc5ccccc5[nH]4)n[nH]3)cc2)CC1
> 40%	–	CC(=O)N1CCN(c2ccc(C(=O)Nc3cc(-c4nc5ccccc5[nH]4)n[nH]3)cc2)CC1
